We go through ten molecules from PubChem BioAssay (NCI).

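Step 1: Grow cells in 96-well plates. Step 2: Expose to compound for 48 hours at 5 concentrations. Step 3: Interpolate endpoints linearly; if unreached, use highest concentration. Here, GI50 denotes the concentration required for 50% inhibition of growth. TGI: total growth inhibition.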

Assay in all cases: NCI tumour cell line growth inhibition, 48 h
The subject of assay [1] is RPMI-8226 leukemia.
The subject of assay [2] is CAKI-1 renal.
The subject of assay [3] is EKVX NSCLC.
The test system of assay [4] is 786-0 renal.
The subject of assay [5] is SF-295 CNS.
The subject of assay [6] is SNB-19 CNS.
In assay [7] the test system is ACHN renal.
The subject of assay [8] is A549 NSCLC.
Assay [9] relates to NCI-H23 lung.

Take `CCOC(=O)/C=C/c1ccc(C(=O)OCC)[nH]1`: the GI50 in assay [1] was 5.32 µM; in [2] it was 6.36 µM; in assay [3], 9.89 µM; in assay [4], 7.85 µM; in [5], 3.5 µM; in assay [6], 24.7 µM. In addition, the GI50 in [7] was 6.88 µM; in assay [8], 5.69 µM; in assay [9] it was 7.16 µM. Also, the TGI in [1] is over 100 µM; in assay [2], over 100 µM; in assay [3], over 100 µM; in assay [4], over 100 µM; in [5], 41.2 µM; in assay [6], over 100 µM. Moreover, the TGI in assay [7], in [8] and in assay [9] was over 100 µM throughout.

As to `CC1(C)C(=O)/C(=C\c2ccco2)C[C@]2(C)[C@H]3CC=C4[C@@H]5C[C@](C)(C(=O)O)CC[C@]5(C)CC[C@@]4(C)[C@]3(C)CC[C@@H]12`, the GI50 in [1] is 4.2 µM; in [2] it was 10.6 µM; in assay [3], 4.63 µM; in assay [4], 9.51 µM; in assay [5], 7.06 µM; in [6], 10.2 µM. In addition, the GI50 in assay [7] is 6.9 µM; in assay [8], 4.21 µM; in assay [9], 8.89 µM. The TGI in [1] was found to be 47.9 µM; in assay [2] it was 28.2 µM; in assay [3] it was 17.3 µM; in assay [4], 25 µM; in [5] it was 24.6 µM; in assay [6], 22.7 µM. The TGI in assay [7] came out at 21.1 µM; in assay [8], 21.7 µM; in assay [9] it was 25.4 µM.

For `O=Nc1c2cccnc2n2nnc3ccc(Cl)cc3c12`, the GI50 is 0.258 µM in [1]; 0.436 µM in assay [2]; 3.59 µM in [3]; 1.25 µM in [4]; 4.24 µM in assay [5]; 5.5 µM in assay [6]. For the same molecule, the GI50 is 0.371 µM in assay [7], 3.98 µM in assay [8] and 2.09 µM in assay [9]. Moreover, the TGI in assay [1] stood at 1.7 µM; in assay [2], 2.35 µM; in assay [3] it was 19.6 µM; in assay [4], 6.11 µM; in assay [5], 16.2 µM; in [6], 22 µM. Also, the TGI is 2.02 µM in assay [7], 23.8 µM in [8] and 10.2 µM in assay [9].

For `Nc1ncnc2c1ncn2C1OC(C(=O)O)C(O)C1O` (stereo unspecified), the TGI in [1], in [2], in [3], in assay [4], in assay [5] and in [6] was over 100 µM in each case. The TGI in assay [7], in [8] and in [9] was over 100 µM in each case.

On to `Cc1ccc(C)c(NC(=O)/C(=N\NC(N)=S)C(C#N)c2ccccc2)c1` (stereo unspecified), for which the TGI in assay [1], in assay [2], in assay [3], in [4], in [5] and in assay [6] was over 100 µM each time. Besides, the TGI in [7], in [8] and in assay [9] was over 100 µM throughout.

For `O=C1/C(=C\c2cccs2)Oc2ccccc21`, the TGI in [1], in assay [2], in assay [3], in assay [4], in [5] and in [6] was over 100 µM each time. Besides, the TGI in assay [7], in assay [8] and in [9] was over 100 µM in each case.

With `CCOC(=O)/C(C1=CC(=O)C(=O)c2ccccc21)=C(/C)NCc1ccccc1`, the GI50 in [1] was 0.184 µM; in assay [2], 1.61 µM; in [3] it was 2.33 µM; in [4], 1.29 µM; in [5], 1.76 µM; in assay [6] it was 3.24 µM. The figures for the GI50 in assay [7], in [8] and in assay [9] were 2.28 µM, 2.4 µM and 1.85 µM, respectively. Also, the TGI was 0.432 µM in assay [1]; 3.58 µM in [2]; 5.06 µM in assay [3]; 2.88 µM in assay [4]; 3.68 µM in assay [5]; over 100 µM in [6]. Moreover, the TGI amounted to 4.75 µM in [7], 6.42 µM in [8] and 3.71 µM in [9].

Turning to `O=C(/C=C/c1ccc([N+](=O)[O-])o1)NNC(=O)c1cc2ccccc2cc1O`, the GI50 was 2.3 µM in [1]; 1.04 µM in assay [2]; 7.2 µM in assay [3]; 1.54 µM in [4]; 7.62 µM in assay [5]; 4.6 µM in assay [6]. Besides, the figures for the GI50 in assay [7], in assay [8] and in assay [9] were 0.688 µM, 3.95 µM and 1.05 µM, respectively. Moreover, the TGI in assay [1] was over 100 µM; in assay [3], over 100 µM; in assay [4] it was 3.47 µM; in assay [5] it was over 100 µM; in assay [6], over 100 µM; in [7], 2.24 µM. Also, the figures for the TGI in assay [8] and in [9] were over 100 µM and 5.03 µM, respectively.

For `O=C1Cc2c(-c3ccccc3)cc(-c3cccc(Cl)c3)nc2-c2ccccc2N1`, the TGI in assay [1] is over 93 µM; in [2], 5.06 µM; in assay [3], 12.6 µM; in assay [4], 2.42 µM; in assay [5], 28.6 µM; in assay [6], 3.59 µM. The TGI in assay [7] was 5.63 µM; in [8], 9.25 µM; in [9], 16.8 µM. Also, the GI50 in assay [4] is 0.977 µM; in [7] it was 1.15 µM.

Regarding `COc1ccc2c(C3(O)CCNCC3)c[nH]c2c1`, the TGI in [1], in assay [2], in assay [3], in assay [4], in assay [5] and in assay [6] was over 100 µM throughout. Further, the TGI in assay [7], in assay [8] and in assay [9] was over 100 µM each time.
